Reference: patent US9738634B2, “Heterocyclic amide compound and herbicide” (SYNGENTA PARTICIPATIONS AG, priority 2013, dated 2017)

Tests used:
Type in all cases: in vivo
oval-leafed pondweed [1] = test: Test Example 1: weedkilling efficacy, preemergent weed treatment in the submerged state; C: oval-leafed pondweed; conditions: treatment dosage 320 g/ha
Outline: (§1)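 Pots of alluvial soil flooded 4 cm deep, sown with barnyard grass, bulrush and oval-leafed pondweed and transplanted with 2.5-leaf rice. Emulsified compound applied to the water surface on sowing day at stated g/ha; greenhouse 25–30 °C, effects assessed 3 weeks after treatment.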

catchweed = test: Test Example 3: weedkilling efficacy through soil treatment; O: catchweed; conditions: soil treatment, treatment dosage 320 g/ha
Outline: (§2)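 Crop and weed responses were judged three weeks after a uniform surface spray of the water-diluted emulsion at the given g/ha rate. Seeds sat beneath about 1.5 cm of sterilized diluvial soil, and boxes stood in a greenhouse at 25 to 30° C.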

soybean = test: Test Example 3: soil treatment, effect on crop; d: soybean; conditions: soil treatment, treatment dosage 320 g/ha
Outline: as §2

fig-leafed goosefoot = test: Test Example 3: weedkilling efficacy through soil treatment; M: fig-leafed goosefoot; conditions: soil treatment, treatment dosage 320 g/ha
Outline: as §2

black-grass = test: Test Example 3: weedkilling efficacy through soil treatment; H: black-grass; conditions: soil treatment, treatment dosage 320 g/ha
Outline: as §2

rapeseed = test: Test Example 3: soil treatment, effect on crop; g: rapeseed; conditions: soil treatment, treatment dosage 320 g/ha
Outline: as §2

oval-leafed pondweed [2] = test: Test Example 2: weedkilling efficacy, growth period weed treatment in the submerged state; C: oval-leafed pondweed; conditions: treatment dosage 320 g/ha
Outline: (§3)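 Barnyard grass, bulrush and oval-leafed pondweed sown in alluvial soil under 4 cm flooding, greenhouse 25 to 30° C. At 1-2 leaf stage, water-diluted emulsion applied to the water surface at stated g/ha dosages; effects scored 3 weeks later.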

barnyard grass [3] = test: Test Example 3: weedkilling efficacy through soil treatment; F: barnyard grass; conditions: soil treatment, treatment dosage 320 g/ha
Outline: as §2

chickweed = test: Test Example 3: weedkilling efficacy through soil treatment; N: chickweed; conditions: soil treatment, treatment dosage 320 g/ha
Outline: as §2

directly sown rice = test: Test Example 3: soil treatment, effect on crop; b: directly sown rice; conditions: soil treatment, treatment dosage 320 g/ha
Outline: as §2

birds-eye speedwell = test: Test Example 3: weedkilling efficacy through soil treatment; p: birds-eye speedwell; conditions: soil treatment, treatment dosage 320 g/ha
Outline: as §2

redroot pigweed = test: Test Example 3: weedkilling efficacy through soil treatment; L: redroot pigweed; conditions: soil treatment, treatment dosage 320 g/ha
Outline: as §2

barnyard grass [4] = test: Test Example 2: weedkilling efficacy, growth period weed treatment in the submerged state; A: barnyard grass; conditions: treatment dosage 320 g/ha
Outline: as §3

corn = test: Test Example 3: soil treatment, effect on crop; c: corn; conditions: soil treatment, treatment dosage 320 g/ha
Outline: as §2

common wind-grass = test: Test Example 3: weedkilling efficacy through soil treatment; J: common wind-grass; conditions: soil treatment, treatment dosage 320 g/ha
Outline: as §2

green foxtail = test: Test Example 3: weedkilling efficacy through soil treatment; E: green foxtail; conditions: soil treatment, treatment dosage 320 g/ha
Outline: as §2

transplanted rice = test: Test Example 1: preemergent weed treatment in the submerged state, effect on crop; a: transplanted rice; conditions: treatment dosage 320 g/ha
Outline: as §1

wheat = test: Test Example 3: soil treatment, effect on crop; e: wheat; conditions: soil treatment, treatment dosage 320 g/ha
Outline: as §2

wild oat = test: Test Example 3: weedkilling efficacy through soil treatment; G: wild oat; conditions: soil treatment, treatment dosage 320 g/ha
Outline: as §2

bulrush [5] = test: Test Example 2: weedkilling efficacy, growth period weed treatment in the submerged state; B: bulrush; conditions: treatment dosage 320 g/ha
Outline: as §3

Italian ryegrass = test: Test Example 3: weedkilling efficacy through soil treatment; I: Italian ryegrass; conditions: soil treatment, treatment dosage 320 g/ha
Outline: as §2

crabgrass = test: Test Example 3: weedkilling efficacy through soil treatment; D: crabgrass; conditions: soil treatment, treatment dosage 320 g/ha
Outline: as §2

Indian mallow = test: Test Example 3: weedkilling efficacy through soil treatment; K: Indian mallow; conditions: soil treatment, treatment dosage 320 g/ha
Outline: as §2

bulrush [6] = test: Test Example 1: weedkilling efficacy, preemergent weed treatment in the submerged state; B: bulrush; conditions: treatment dosage 320 g/ha
Outline: as §1

barnyard grass [7] = test: Test Example 1: weedkilling efficacy, preemergent weed treatment in the submerged state; A: barnyard grass; conditions: treatment dosage 320 g/ha
Outline: as §1

beet = test: Test Example 3: soil treatment, effect on crop; f: beet; conditions: soil treatment, treatment dosage 320 g/ha
Outline: as §2

Row | Compound | C: oval-leafed pondweed, weed kill grade (oval-leafed pondweed [1]) | O: catchweed, weedkilling efficacy grade (catchweed) | d: soybean, effect on crop grade (soybean) | M: fig-leafed goosefoot, weedkilling efficacy grade (fig-leafed goosefoot) | H: black-grass, weedkilling efficacy grade (black-grass) | g: rapeseed, effect on crop grade (rapeseed) | C (oval-leafed pondweed) weedkilling efficacy grade (oval-leafed pondweed [2]) | F: barnyard grass, weedkilling efficacy grade (barnyard grass [3]) | N: chickweed, weedkilling efficacy grade (chickweed) | b: directly sown rice, effect on crop grade (directly sown rice) | P: birds-eye speedwell, weedkilling efficacy grade (birds-eye speedwell) | L: redroot pigweed, weedkilling efficacy grade (redroot pigweed) | A (barnyard grass) weedkilling efficacy grade (barnyard grass [4]) | c: corn, effect on crop grade (corn) | J: common wind-grass, weedkilling efficacy grade (common wind-grass) | E: green foxtail, weedkilling efficacy grade (green foxtail) | a: transplanted rice, effect on crop grade (transplanted rice) | e: wheat, effect on crop grade (wheat) | G: wild oat, weedkilling efficacy grade (wild oat) | B (bulrush) weedkilling efficacy grade (bulrush [5]) | further results
1 | CCc1cc(F)nc(NC(=O)C(C)(C)N2COCN(c3ccccc3)C2=O)c1 [A-2-21] | 5 (weed kill ratio 90% or more, (practically complete withering)) | 4 (weed kill ratio 70% or more, less than 90%) | 3 (weed kill ratio 40% or more, less than 70%) | 5 (weed kill ratio 90% or more, (practically complete withering)) | 5 (weed kill ratio 90% or more, (practically complete withering)) | 4 (weed kill ratio 70% or more, less than 90%) | 5 (weed kill ratio 90% or more, (practically complete withering)) | 5 (weed kill ratio 90% or more, (practically complete withering)) | 4 (weed kill ratio 70% or more, less than 90%) | 5 (weed kill ratio 90% or more, (practically complete withering)) | 5 (weed kill ratio 90% or more, (practically complete withering)) | 4 (weed kill ratio 70% or more, less than 90%) | 5 (weed kill ratio 90% or more, (practically complete withering)) | 0 (weed kill ratio 5% or less (practically no effect)) | 5 (weed kill ratio 90% or more, (practically complete withering)) | 5 (weed kill ratio 90% or more, (practically complete withering)) | 5 (weed kill ratio 90% or more, (practically complete withering)) | 1 (weed kill ratio 5% or more, less than 20%) | 5 (weed kill ratio 90% or more, (practically complete withering)) | 5 (weed kill ratio 90% or more, (practically complete withering)) | I: Italian ryegrass, weedkilling efficacy grade (Italian ryegrass): 5 (weed kill ratio 90% or more, (practically complete withering)); D: crabgrass, weedkilling efficacy grade (crabgrass): 5 (weed kill ratio 90% or more, (practically complete withering)); K: Indian mallow, weedkilling efficacy grade (Indian mallow): 2 (weed kill ratio 20% or more, less than 40%); B: bulrush, weed kill grade (bulrush [6]): 5 (weed kill ratio 90% or more, (practically complete withering)); A: barnyard grass, weed kill grade (barnyard grass [7]): 5 (weed kill ratio 90% or more, (practically complete withering)); f: beet, effect on crop grade (beet): 0 (weed kill ratio 5% or less (practically no effect))
2 | COc1cc(F)nc(NC(=O)C(C)(C)N2COCN(c3ccccc3)C2=O)c1 [A-2-23] | 5 (weed kill ratio 90% or more, (practically complete withering)) | 4 (weed kill ratio 70% or more, less than 90%) | 0 (weed kill ratio 5% or less (practically no effect)) | 4 (weed kill ratio 70% or more, less than 90%) | 5 (weed kill ratio 90% or more, (practically complete withering)) | 4 (weed kill ratio 70% or more, less than 90%) | 5 (weed kill ratio 90% or more, (practically complete withering)) | 5 (weed kill ratio 90% or more, (practically complete withering)) | 4 (weed kill ratio 70% or more, less than 90%) | 5 (weed kill ratio 90% or more, (practically complete withering)) | 5 (weed kill ratio 90% or more, (practically complete withering)) | 0 (weed kill ratio 5% or less (practically no effect)) | 5 (weed kill ratio 90% or more, (practically complete withering)) | 0 (weed kill ratio 5% or less (practically no effect)) | 5 (weed kill ratio 90% or more, (practically complete withering)) | 5 (weed kill ratio 90% or more, (practically complete withering)) | 3 (weed kill ratio 40% or more, less than 70%) | 0 (weed kill ratio 5% or less (practically no effect)) | 4 (weed kill ratio 70% or more, less than 90%) | 5 (weed kill ratio 90% or more, (practically complete withering)) | I: Italian ryegrass, weedkilling efficacy grade (Italian ryegrass): 5 (weed kill ratio 90% or more, (practically complete withering)); D: crabgrass, weedkilling efficacy grade (crabgrass): 5 (weed kill ratio 90% or more, (practically complete withering)); K: Indian mallow, weedkilling efficacy grade (Indian mallow): 0 (weed kill ratio 5% or less (practically no effect)); B: bulrush, weed kill grade (bulrush [6]): 5 (weed kill ratio 90% or more, (practically complete withering)); A: barnyard grass, weed kill grade (barnyard grass [7]): 5 (weed kill ratio 90% or more, (practically complete withering)); f: beet, effect on crop grade (beet): 3 (weed kill ratio 40% or more, less than 70%)
3 | CC(C)(C(=O)Nc1cc(C2CC2)cc(Cl)n1)N1COCN(c2ccccc2)C1=O [A-2-30] | 5 (weed kill ratio 90% or more, (practically complete withering)) | 0 (weed kill ratio 5% or less (practically no effect)) | 0 (weed kill ratio 5% or less (practically no effect)) | 3 (weed kill ratio 40% or more, less than 70%) | 5 (weed kill ratio 90% or more, (practically complete withering)) | 4 (weed kill ratio 70% or more, less than 90%) | 5 (weed kill ratio 90% or more, (practically complete withering)) | 5 (weed kill ratio 90% or more, (practically complete withering)) | 3 (weed kill ratio 40% or more, less than 70%) | 3 (weed kill ratio 40% or more, less than 70%) | 4 (weed kill ratio 70% or more, less than 90%) | 0 (weed kill ratio 5% or less (practically no effect)) | 5 (weed kill ratio 90% or more, (practically complete withering)) | 0 (weed kill ratio 5% or less (practically no effect)) | 5 (weed kill ratio 90% or more, (practically complete withering)) | 5 (weed kill ratio 90% or more, (practically complete withering)) | 1 (weed kill ratio 5% or more, less than 20%) | 1 (weed kill ratio 5% or more, less than 20%) | 4 (weed kill ratio 70% or more, less than 90%) | 5 (weed kill ratio 90% or more, (practically complete withering)) | I: Italian ryegrass, weedkilling efficacy grade (Italian ryegrass): 5 (weed kill ratio 90% or more, (practically complete withering)); D: crabgrass, weedkilling efficacy grade (crabgrass): 5 (weed kill ratio 90% or more, (practically complete withering)); K: Indian mallow, weedkilling efficacy grade (Indian mallow): 0 (weed kill ratio 5% or less (practically no effect)); B: bulrush, weed kill grade (bulrush [6]): 5 (weed kill ratio 90% or more, (practically complete withering)); A: barnyard grass, weed kill grade (barnyard grass [7]): 5 (weed kill ratio 90% or more, (practically complete withering)); f: beet, effect on crop grade (beet): 3 (weed kill ratio 40% or more, less than 70%)
